Reference: EP1853270B1, “PHARMACEUTICAL COMPOSITIONS COMPRISING NEP-INHIBITORS, INHIBITORS OF THE ENDOGENOUS ENDOTHELIN PRODUCING SYSTEM AND DIURETICS” (Solvay Pharmaceuticals GmbH, priority 2005, dated 2006)

Tested on: spontaneously hypertensive rat
Assay: Telemetric monitoring of blood pressure and heart rate in spontaneously hypertensive rats, compounds given via drinking water
Assay type: in vivo
Details: male SHR; for DBP: group mean change of 24 h mean diastolic blood pressure; for DBP / HR / SBP: day 23 (3 weeks of treatment) minus baseline (day 3), via drinking water, intended 10 mg/kg/day hydrochlorothiazide and/or 100 mg/kg/day daglutril, n=5 per group; for HR: group mean change of 24 h mean heart rate; for SBP: group mean change of 24 h mean systolic blood pressure; for effect on blood pressure: result in words, 3 weeks of treatment via drinking water, difference between groups significant (ANOVA, at least P<0.01)
Excerpt: Male spontaneously hypertensive rats (= SHR, insulin resistant strain from Charles River; aged 6 months) were equipped with telemetry transmitters for continuous monitoring of blood pressure and heart rate (TA11PA-C40. DSI, USA). Telemetry transmitters for continuous monitoring of blood pressure, heart rate and locomotor activity (TA11PA-C40, Data Sciences, USA) were implanted intraabdominally under inhalative halothane anesthesia. A midline abdominal incision was made, and the abdominal aorta was visualized by removal of retroperitoneal fat and connective tissue. A ligature was placed caudal of the renal arteries, the aorta was punctured with a 22G needle, and the catheter was advanced into the aorta. The entry point was sealed with tissue adhesive (Vetbond, 3M, USA), the ligature was removed, and the abdominal incision was closed. Measurements of aortic pressure were taken every 5 minutes (= min) for 4 seconds (= s) each at a sampling rate of 500 Hz, and were corrected for the corresponding ambient pressure (ambient pressure monitor, C11 PR, Data Sciences, USA).
After 3 days of monitoring under baseline (untreated) conditions, animals received daglutril via the drinking water. The intended daily dose was 100 mg/kg/day of daglutril.
In a second experiment, rats were divided into two treatment groups receiving hydrochlorothiazide or hydrochlorothiazide + daglutril. Compounds were administered via the drinking water, and daily drug intake was measured by weighing the water bottles thrice weekly. Intended daily doses were 10 mg/kg/day of hydrochlorothiazide plus, in the combination group, 100 mg/kg/day of daglutril.
Concentrations of hydrochlorothiazide and daglutril in the drinking water were adjusted once per week, in order to ensure the intended daily intake of 10 and 100 mg/kg, respectively.
The blood pressure, heart rate and activity values, sampled in 5 min intervals by the Dataquest™ system, were used for calculation of individual 24 hours (= h) -means. These 24 h means were exported to Excel, and group mean values of systolic blood pressure (= SBP), diastolic blood pressure (= DBP), heart rate (= HR), and locomotor activity (= ACT) were calculated for the daglutril, hydrochlorothiazide and the hydrochlorothiazide + daglutril groups. For the statistical analysis, a baseline value (pre) was calculated from the last day prior to compound application (day 3), and effects of daglutril, hydrochlorothiazide and hydrochlorothiazide + daglutril were calculated in relation to this baseline value (day 23, i.e. after 3 weeks of treatment, minus baseline value). The statistical comparison was done by using univariate ANOVA at an error level of P<0.05.

In the case of `NS(=O)(=O)c1cc2c(cc1Cl)NCNS2(=O)=O` [HCTZ, hydrochlorothiazide], the DBP is reported as -7.7 mmHg, the HR is reported as -4.5 min⁻¹ and the SBP is reported as -11.3 mmHg. For the same compound, the “effect on blood pressure” value was “moderate decrease in blood pressure”.
For `CCOC(=O)[C@H](CCc1ccccc1)CC1(C(=O)N[C@H]2CCc3ccccc3N(CC(=O)O)C2=O)CCCC1` [daglutril], the DBP was 2.0 mmHg, the HR was -6.0 min⁻¹ and the SBP was -0.3 mmHg. The “effect on blood pressure” value was “no effect on blood pressure”.
